Test results reported in patent US20180092358A1, “HERBICIDAL MIXTURES” (Syngenta Participations AG, priority 2015, published 2018).

The compounds below were run on Abutilon theophrasti (assay: Post-emergence herbicidal activity (glasshouse)). Conditions: application post-emergence, 1000 g/Ha, evaluated after 13 days, scale 0-5.
Assay type: in vivo
Experimental: (§1) Seeds of a variety of test species were sown in standard soil in pots. After 8 days cultivation (post-emergence) under controlled conditions in a glasshouse (at 24/16° C., day/night; 14 hours light; 65% humidity), the plants were sprayed with an aqueous spray solution derived from the formulation of the technical active ingredient in acetone/water (50:50) solution containing 0.5% Tween 20 (polyoxyethelyene sorbitan monolaurate, CAS RN 9005-64-5). The test plants were then grown in a glasshouse under controlled conditions (at 24/16° C., day/night; 14 hours light; 65% humidity) and watered twice daily. After 13 days, the test was evaluated (5=total damage to plant; 0=no damage to plant).

Structure (SMILES)	damage to plant score, ABUTH
CCOC1C(O)N(c2cc(C(F)(F)F)ccn2)C(=O)N1C (stereo not drawn) [Compound 1.3, 5-ethoxy-4-hydroxy-1-methyl-3-[4-(trifluoromethyl)-2-pyridyl]imidazolidin-2-one]	5
CN1CC(O)N(c2cc(C(F)(F)F)ccn2)C1=O (stereo not drawn) [Compound 1.4, 4-hydroxy-1-methyl-3-[4-(trifluoromethyl)-2-pyridyl]imidazolidin-2-one]	5
CON1C(=O)N(c2cc(C(F)(F)F)ccn2)C(O)C1C (stereo not drawn) [Compound 1.1, 4-hydroxy-1-methoxy-5-methyl-3-[4-(trifluoromethyl)-2-pyridyl]imidazolidin-2-one]	5

The compounds below were run on Echinochloa crus-galli (assay: Post-emergence herbicidal activity (glasshouse)). Conditions: application post-emergence, 1000 g/Ha, evaluated after 13 days, scale 0-5.
Assay type: in vivo
Experimental: as §1

Structure (SMILES)	damage to plant score, ECHCG
CCOC1C(O)N(c2cc(C(F)(F)F)ccn2)C(=O)N1C (stereo not drawn) [Compound 1.3, 5-ethoxy-4-hydroxy-1-methyl-3-[4-(trifluoromethyl)-2-pyridyl]imidazolidin-2-one]	5
CN1CC(O)N(c2cc(C(F)(F)F)ccn2)C1=O (stereo not drawn) [Compound 1.4, 4-hydroxy-1-methyl-3-[4-(trifluoromethyl)-2-pyridyl]imidazolidin-2-one]	5
CON1C(=O)N(c2cc(C(F)(F)F)ccn2)C(O)C1C (stereo not drawn) [Compound 1.1, 4-hydroxy-1-methoxy-5-methyl-3-[4-(trifluoromethyl)-2-pyridyl]imidazolidin-2-one]	5

These compounds were tested on Alopecurus myosuroides (assay: Post-emergence herbicidal activity (glasshouse)). Conditions: application post-emergence, 1000 g/Ha, evaluated after 13 days, scale 0-5.
Assay type: in vivo
Experimental: as §1

Structure (SMILES)	damage to plant score, ALOMY
CCOC1C(O)N(c2cc(C(F)(F)F)ccn2)C(=O)N1C (stereo not drawn) [Compound 1.3, 5-ethoxy-4-hydroxy-1-methyl-3-[4-(trifluoromethyl)-2-pyridyl]imidazolidin-2-one]	5
CN1CC(O)N(c2cc(C(F)(F)F)ccn2)C1=O (stereo not drawn) [Compound 1.4, 4-hydroxy-1-methyl-3-[4-(trifluoromethyl)-2-pyridyl]imidazolidin-2-one]	5
CON1C(=O)N(c2cc(C(F)(F)F)ccn2)C(O)C1C (stereo not drawn) [Compound 1.1, 4-hydroxy-1-methoxy-5-methyl-3-[4-(trifluoromethyl)-2-pyridyl]imidazolidin-2-one]	5

What follows are compounds tested on Amaranthus retroflexus (assay: Post-emergence herbicidal activity (glasshouse)). Conditions: application post-emergence, 1000 g/Ha, evaluated after 13 days, scale 0-5.
Assay type: in vivo
Experimental: as §1

Structure (SMILES)	damage to plant score, AMARE
CCOC1C(O)N(c2cc(C(F)(F)F)ccn2)C(=O)N1C (stereo not drawn) [Compound 1.3, 5-ethoxy-4-hydroxy-1-methyl-3-[4-(trifluoromethyl)-2-pyridyl]imidazolidin-2-one]	5
CN1CC(O)N(c2cc(C(F)(F)F)ccn2)C1=O (stereo not drawn) [Compound 1.4, 4-hydroxy-1-methyl-3-[4-(trifluoromethyl)-2-pyridyl]imidazolidin-2-one]	5
CON1C(=O)N(c2cc(C(F)(F)F)ccn2)C(O)C1C (stereo not drawn) [Compound 1.1, 4-hydroxy-1-methoxy-5-methyl-3-[4-(trifluoromethyl)-2-pyridyl]imidazolidin-2-one]	5

Each compound was assayed on Setaria faberi (assay: Post-emergence herbicidal activity (glasshouse)). Conditions: application post-emergence, 1000 g/Ha, evaluated after 13 days, scale 0-5.
Assay type: in vivo
Experimental: as §1

Structure (SMILES)	damage to plant score, SETFA
CCOC1C(O)N(c2cc(C(F)(F)F)ccn2)C(=O)N1C (stereo not drawn) [Compound 1.3, 5-ethoxy-4-hydroxy-1-methyl-3-[4-(trifluoromethyl)-2-pyridyl]imidazolidin-2-one]	5
CN1CC(O)N(c2cc(C(F)(F)F)ccn2)C1=O (stereo not drawn) [Compound 1.4, 4-hydroxy-1-methyl-3-[4-(trifluoromethyl)-2-pyridyl]imidazolidin-2-one]	5
CON1C(=O)N(c2cc(C(F)(F)F)ccn2)C(O)C1C (stereo not drawn) [Compound 1.1, 4-hydroxy-1-methoxy-5-methyl-3-[4-(trifluoromethyl)-2-pyridyl]imidazolidin-2-one]	5

Each compound was assayed on Zea mays (assay: Post-emergence herbicidal activity (glasshouse)). Conditions: application post-emergence, 1000 g/Ha, evaluated after 13 days, scale 0-5.
Assay type: in vivo
Experimental: as §1

Structure (SMILES)	damage to plant score, ZEAMX
CCOC1C(O)N(c2cc(C(F)(F)F)ccn2)C(=O)N1C (stereo not drawn) [Compound 1.3, 5-ethoxy-4-hydroxy-1-methyl-3-[4-(trifluoromethyl)-2-pyridyl]imidazolidin-2-one]	4
CN1CC(O)N(c2cc(C(F)(F)F)ccn2)C1=O (stereo not drawn) [Compound 1.4, 4-hydroxy-1-methyl-3-[4-(trifluoromethyl)-2-pyridyl]imidazolidin-2-one]	5
CON1C(=O)N(c2cc(C(F)(F)F)ccn2)C(O)C1C (stereo not drawn) [Compound 1.1, 4-hydroxy-1-methoxy-5-methyl-3-[4-(trifluoromethyl)-2-pyridyl]imidazolidin-2-one]	2

What follows are compounds tested on Abutilon theophrasti (assay: Pre-emergence herbicidal activity (glasshouse)). Conditions: application pre-emergence, 1000 g/Ha, evaluated after 13 days, scale 0-5.
Assay type: in vivo
Experimental: as §1, with “After” for “After 8 days”, “for one day (pre-emergence)” for “(post-emergence)”

Structure (SMILES)	damage to plant score, ABUTH
CCOC1C(O)N(c2cc(C(F)(F)F)ccn2)C(=O)N1C (stereo not drawn) [Compound 1.3, 5-ethoxy-4-hydroxy-1-methyl-3-[4-(trifluoromethyl)-2-pyridyl]imidazolidin-2-one]	5
CN1CC(O)N(c2cc(C(F)(F)F)ccn2)C1=O (stereo not drawn) [Compound 1.4, 4-hydroxy-1-methyl-3-[4-(trifluoromethyl)-2-pyridyl]imidazolidin-2-one]	5
CON1C(=O)N(c2cc(C(F)(F)F)ccn2)C(O)C1C (stereo not drawn) [Compound 1.1, 4-hydroxy-1-methoxy-5-methyl-3-[4-(trifluoromethyl)-2-pyridyl]imidazolidin-2-one]	5

The compounds below were run on Echinochloa crus-galli (assay: Pre-emergence herbicidal activity (glasshouse)). Conditions: application pre-emergence, 1000 g/Ha, evaluated after 13 days, scale 0-5.
Assay type: in vivo
Experimental: as §1, with “After” for “After 8 days”, “for one day (pre-emergence)” for “(post-emergence)”

Structure (SMILES)	damage to plant score, ECHCG
CCOC1C(O)N(c2cc(C(F)(F)F)ccn2)C(=O)N1C (stereo not drawn) [Compound 1.3, 5-ethoxy-4-hydroxy-1-methyl-3-[4-(trifluoromethyl)-2-pyridyl]imidazolidin-2-one]	5
CN1CC(O)N(c2cc(C(F)(F)F)ccn2)C1=O (stereo not drawn) [Compound 1.4, 4-hydroxy-1-methyl-3-[4-(trifluoromethyl)-2-pyridyl]imidazolidin-2-one]	5
CON1C(=O)N(c2cc(C(F)(F)F)ccn2)C(O)C1C (stereo not drawn) [Compound 1.1, 4-hydroxy-1-methoxy-5-methyl-3-[4-(trifluoromethyl)-2-pyridyl]imidazolidin-2-one]	4

These compounds were tested on Alopecurus myosuroides (assay: Pre-emergence herbicidal activity (glasshouse)). Conditions: application pre-emergence, 1000 g/Ha, evaluated after 13 days, scale 0-5.
Assay type: in vivo
Experimental: as §1, with “After” for “After 8 days”, “for one day (pre-emergence)” for “(post-emergence)”

Structure (SMILES)	damage to plant score, ALOMY
CCOC1C(O)N(c2cc(C(F)(F)F)ccn2)C(=O)N1C (stereo not drawn) [Compound 1.3, 5-ethoxy-4-hydroxy-1-methyl-3-[4-(trifluoromethyl)-2-pyridyl]imidazolidin-2-one]	4
CN1CC(O)N(c2cc(C(F)(F)F)ccn2)C1=O (stereo not drawn) [Compound 1.4, 4-hydroxy-1-methyl-3-[4-(trifluoromethyl)-2-pyridyl]imidazolidin-2-one]	4
CON1C(=O)N(c2cc(C(F)(F)F)ccn2)C(O)C1C (stereo not drawn) [Compound 1.1, 4-hydroxy-1-methoxy-5-methyl-3-[4-(trifluoromethyl)-2-pyridyl]imidazolidin-2-one]	4

Each compound was assayed on Amaranthus retroflexus (assay: Pre-emergence herbicidal activity (glasshouse)). Conditions: application pre-emergence, 1000 g/Ha, evaluated after 13 days, scale 0-5.
Assay type: in vivo
Experimental: as §1, with “After” for “After 8 days”, “for one day (pre-emergence)” for “(post-emergence)”

Structure (SMILES)	damage to plant score, AMARE
CCOC1C(O)N(c2cc(C(F)(F)F)ccn2)C(=O)N1C (stereo not drawn) [Compound 1.3, 5-ethoxy-4-hydroxy-1-methyl-3-[4-(trifluoromethyl)-2-pyridyl]imidazolidin-2-one]	5
CN1CC(O)N(c2cc(C(F)(F)F)ccn2)C1=O (stereo not drawn) [Compound 1.4, 4-hydroxy-1-methyl-3-[4-(trifluoromethyl)-2-pyridyl]imidazolidin-2-one]	5
CON1C(=O)N(c2cc(C(F)(F)F)ccn2)C(O)C1C (stereo not drawn) [Compound 1.1, 4-hydroxy-1-methoxy-5-methyl-3-[4-(trifluoromethyl)-2-pyridyl]imidazolidin-2-one]	5

The compounds below were run on Setaria faberi (assay: Pre-emergence herbicidal activity (glasshouse)). Conditions: application pre-emergence, 1000 g/Ha, evaluated after 13 days, scale 0-5.
Assay type: in vivo
Experimental: as §1, with “After” for “After 8 days”, “for one day (pre-emergence)” for “(post-emergence)”

Structure (SMILES)	damage to plant score, SETFA
CCOC1C(O)N(c2cc(C(F)(F)F)ccn2)C(=O)N1C (stereo not drawn) [Compound 1.3, 5-ethoxy-4-hydroxy-1-methyl-3-[4-(trifluoromethyl)-2-pyridyl]imidazolidin-2-one]	5
CN1CC(O)N(c2cc(C(F)(F)F)ccn2)C1=O (stereo not drawn) [Compound 1.4, 4-hydroxy-1-methyl-3-[4-(trifluoromethyl)-2-pyridyl]imidazolidin-2-one]	4
CON1C(=O)N(c2cc(C(F)(F)F)ccn2)C(O)C1C (stereo not drawn) [Compound 1.1, 4-hydroxy-1-methoxy-5-methyl-3-[4-(trifluoromethyl)-2-pyridyl]imidazolidin-2-one]	5

The compounds below were run on Zea mays (assay: Pre-emergence herbicidal activity (glasshouse)). Conditions: application pre-emergence, 1000 g/Ha, evaluated after 13 days, scale 0-5.
Assay type: in vivo
Experimental: as §1, with “After” for “After 8 days”, “for one day (pre-emergence)” for “(post-emergence)”

Structure (SMILES)	damage to plant score, ZEAMX
CCOC1C(O)N(c2cc(C(F)(F)F)ccn2)C(=O)N1C (stereo not drawn) [Compound 1.3, 5-ethoxy-4-hydroxy-1-methyl-3-[4-(trifluoromethyl)-2-pyridyl]imidazolidin-2-one]	3
CN1CC(O)N(c2cc(C(F)(F)F)ccn2)C1=O (stereo not drawn) [Compound 1.4, 4-hydroxy-1-methyl-3-[4-(trifluoromethyl)-2-pyridyl]imidazolidin-2-one]	3
CON1C(=O)N(c2cc(C(F)(F)F)ccn2)C(O)C1C (stereo not drawn) [Compound 1.1, 4-hydroxy-1-methoxy-5-methyl-3-[4-(trifluoromethyl)-2-pyridyl]imidazolidin-2-one]	2
